IC50 data for 29 molecules are collected here from patent US9828375B2, “4-position substituted pyrazolopyrimidine derivative, and use thereof in drug preparation” (Guangxi Wuzhou Pharmaceuticals (Group) Co., Ltd., priority 2012, dated 2017).

The test system of assay [1] is human colorectal carcinoma cell line HCT116. Description: In vitro tumor cell proliferation inhibition (MTT): HCT116. It is filed as cell-based. The source says:
(§1) The purpose of the experiment was to test the inhibition activity of the compounds of the invention for in vitro human tumor cell proliferation by the methyl thiazolyl tetrazolium (MTT) colorimetry.
(§2) Main reagents: RPMI-1640, fetal bovine serum, pancreatin, etc. were purchased from Gibco BRL Company (Invitrogen Corporation, USA) and IMDM medium that was purchased from American Type Culture Collection (ATCC). Methyl thiazolyl tetrazolium (MTT) and dimethyl sulfoxide (DMSO) were products from Sigma Company (USA). Pyrazolopyrimidine derivatives were composed by the inventor. During in vitro experiment, 100% DMSO was prepared into 10 mM storage solution, the solution was stored in a refrigerator at −20° C. for future use, and was diluted to the required concentration with complete culture solution before use.
(§3) Cell line and culture: Human leukemia cell line MV4-11, Jurkat, K562, human thyrophyma cell line TT, human gastric carcinoma cell line MKN-45, human malignant melanoma cell lines A375 and A875, human pancreatic carcinoma cell line panc-1, human cervical carcinoma cell line HELA, human colorectal carcinoma cell line HCT116, etc. were purchased from American type culture collection and were preserved by this laboratory. All leukemia cell lines (except MV4-11), gastric carcinoma cell lines and thyrophyma cell lines were cultured in RPMI-1640 complete medium containing 10% fetal bovine serum, 100 U/mL penicillin and 100 μg/mL streptomycin at 37° C. in 5% CO2. The remaining cell lines were cultured in DMEM complete medium containing 10% fetal bovine serum (containing 20% MV4-11 cell), 100 U/mL penicillin and 100 µg/mL streptomycin at 37° C. in 5% CO2.
(§4) Cell suspension with cell concentration of 1-2×10^4/mL was adjusted with the complete cell medium and inoculated in a 96-well plate, with each well filled with 200 μl cell suspension that was cultured overnight. On the next day, supernatant was sucked and abandoned (supernatant was sucked upon centrifugation of suspension cells), and then cells were processed with test compounds at gradient concentrations respectively. Meanwhile, a negative control group free from drug and a solvent control group with equal volume were set, and the DMSO concentration was 0.1%. Each dose group was provided with three wells and cultured at 37° C. in 5% CO2. After 72 hours, 20 μl 5 mg/mL MTT reagent was added to each well, and cultured for another 2 to 4 hours, the supernatant was abandoned; 150 μL DMSO was added to each well again, vibrated and mixed evenly for 15 minutes; the absorbance (A) values (proportional to living cell amount) were determined with a microplate reader (λ=570 nm) and averaged. […] Experiment was repeated for 3 times at least. Experimental data were expressed with means, data statistics were tested by t, and P<0.05 means that difference has a statistical significance. The cell proliferation inhibition effects of all compounds as follows are expressed by IC50 or inhibition rate.

Assay [2] deals with human gastric carcinoma cell line MKN-45. As to the kind of experiment: In vitro tumor cell proliferation inhibition (MTT): MKN-45. It is filed as cell-based.
Description: as §1, §2, §3, §4

[3] abbreviates: 72 hours, read-out: Proliferation inhibition activity (IC50) HCT 116.
Where [4] appears, read: Homo sapiens, HCT-116, 72 hours.

Read-outs that look alike come from different tables or passages of the source.

In the case of “1-(4-((1H-pyrazolopyrimidine-4-yl)oxy)-3-fluorophenyl)-3-(3-trifluoromethoxy)phenyl)urea [4a-8]”, the IC50 was found to be 5.7 µM in assay [1] (setting [3]) and 7.65 µM in assay [2] (72 hours).
Take “1-(4-((1H-pyrazolopyrimidine-4-yl)oxy)phenyl)-3-(methylcyclohexyl)urea [4a-20]”: the IC50 in assay [1] (setting [3]) and in assay [2] (72 hours) was below 50 µM each time.
On to `O=C(Nc1ccc(Oc2ncnc3[nH]ncc23)cc1)Nc1ccc(C(F)(F)F)cc1` [4a-1], for which the IC50 in assay [1] (setting [4]) was below 50 µM; in assay [2] (Homo sapiens, MKN-45, 72 hours) it was below 50 µM.
`O=C(Nc1ccc(Oc2ncnc3[nH]ncc23)cc1)Nc1ccc(Cl)c(C(F)(F)F)c1` [4a-2]: the IC50 is below 50 µM in assay [1] (setting [3]) and 8.23 µM in assay [2] (72 hours).
For the molecule `O=C(Nc1ccc(Oc2ncnc3[nH]ncc23)cc1)Nc1cccc(C(F)(F)F)c1` [4a-6], the IC50 is below 50 µM in assay [1] (setting [4]) and 9.71 µM in assay [2] (Homo sapiens, MKN-45, 72 hours).
`CC(C)c1cccc(NC(=O)Nc2ccc(Oc3ncnc4[nH]ncc34)c(F)c2)c1` [4a-7, 1-(4-((1H-pyrazolopyrimidine-4-yl)oxy)-3-fluorophenyl)-3-(3-isopropylphenyl)urea]: the IC50 in assay [1] (setting [3]) and in assay [2] (72 hours) was below 50 µM throughout.
Turning to `O=C(Nc1ccc(C(F)(F)F)cc1)Nc1ccc(Oc2ncnc3[nH]ncc23)c(F)c1` [4a-9, 1-(4-((1H-pyrazolopyrimidine-4-yl)oxy)-3-fluorophenyl)-3-(4-(trifluoromethyl)phenyl)urea], the IC50 in assay [1] (setting [3]) amounted to 4.56 µM; in assay [2] (72 hours), 7.63 µM.
The matching figures for `O=C(Nc1ccc(Oc2ncnc3[nH]ncc23)c(F)c1)Nc1ccc(Cl)c(C(F)(F)F)c1` [4a-10, 1-(4-((1H-pyrazolopyrimidine-4-yl)oxy)-3-fluorophenyl)-3-(4-chloro-3-(trifluoromethyl)phenyl)urea]: below 50 µM and 5.28 µM.
The corresponding values for `O=C(Nc1ccc(Oc2ncnc3[nH]ncc23)cc1)Nc1cc(C(F)(F)F)cc(C(F)(F)F)c1` [4a-12, 1-(4-((1H-pyrazolopyrimidine-4-yl)oxy)phenyl)-3-(3,5-bis(trifluoromethyl)phenyl)urea] are below 50 µM and 8.29 µM.
In the case of `O=C(Nc1ccc(Oc2ncnc3[nH]ncc23)cc1)Nc1ccc(C(F)(F)F)cc1Cl` [4a-13], the IC50 is below 50 µM in assay [1] (setting [3]) and 6.68 µM in assay [2] (72 hours).
The corresponding values for `O=C(Nc1ccccc1)Nc1ccc(Oc2ncnc3[nH]ncc23)cc1` [4a-15, 1-(4-((1H-pyrazolopyrimidine-4-yl)oxy)phenyl)-3-phenylurea] are below 50 µM and below 50 µM.
On to `O=C(Nc1ccc(Oc2ncnc3[nH]ncc23)cc1)Nc1ccc(N2CCOCC2)cc1` [4a-16, 1-(4-((1H-pyrazolopyrimidine-4-yl)oxy)phenyl)-3-(4-morpholinylphenyl)urea], for which the IC50 in assay [1] (setting [4]) was below 50 µM; in assay [2] (Homo sapiens, MKN-45, 72 hours) it was 3.22 µM.
Take `C[C@H](NC(=O)Nc1ccc(Oc2ncnc3[nH]ncc23)cc1)c1ccccc1` [4a-18, (S)-1-(4-((1H-pyrazolopyrimidine-4-yl)oxy)phenyl)-3-(1-phenethyl)urea]: the IC50 in assay [1] (setting [3]) and in assay [2] (72 hours) was below 50 µM in each case.
For the molecule `C[C@@H](NC(=O)Nc1ccc(Oc2ncnc3[nH]ncc23)cc1)c1ccccc1` [4a-19, (R)-1-(4-((1H-pyrazolopyrimidine-4-yl)oxy)phenyl)-3-(1-phenethyl)urea], the IC50 in assay [1] (setting [3]) and in assay [2] (72 hours) was below 50 µM each time.
On to `CC(C)(C)c1cc(NC(=O)Nc2ccc(Oc3ncnc4[nH]ncc34)cc2)n(-c2ccccc2)n1` [4a-24], for which the IC50 in assay [1] (setting [3]) worked out at 6.75 µM; in assay [2] (72 hours), 2.84 µM.
Turning to `CC(C)(C)c1cc(NC(=O)Nc2ccc(Oc3ncnc4[nH]ncc34)cc2)on1` [4a-25], the figures for the IC50 in assay [1] (setting [3]) and in assay [2] (72 hours) were 3 to 10 µM and 1.3 µM, respectively.
Take `CC(C)(C)c1cc(NC(=O)Nc2ccc(Oc3ncnc4[nH]ncc34)cc2)no1` [4a-26]: the IC50 in assay [1] (setting [4]) is 3 to 10 µM; in assay [2] (Homo sapiens, MKN-45, 72 hours), 1.12 µM.
The corresponding values for `O=C(Nc1ccc(Oc2ncnc3[nH]ncc23)cc1)Nc1cc(C(F)(F)F)on1` [4a-28] are below 50 µM and 3 to 10 µM.
For `CC(C)(C)c1cc(NC(=O)Nc2ccc(Oc3ncnc4[nH]ncc34)c(F)c2)no1` [4a-31], the IC50 in assay [2] (72 hours) was below 50 µM.
On to `O=C(Nc1cccc(Nc2ncnc3[nH]ncc23)c1)Nc1ccc(F)c(Cl)c1` [4b-1], for which the IC50 in assay [1] (setting [4]) is below 50 µM; in assay [2] (Homo sapiens, MKN-45, 72 hours) it was below 50 µM.
For `C[C@@H](NC(=O)Nc1ccc(Nc2ncnc3[nH]ncc23)cc1)c1ccccc1` [4b-2, (R)-1-(4-(1H-pyrazolopyrimidine-4-amido)phenyl)-3-(1-phenethyl)urea], the IC50 in assay [1] (setting [4]) is below 50 µM; in assay [2] (Homo sapiens, MKN-45, 72 hours), below 50 µM.
As for `COc1cccc(NC(=O)Nc2ccc(Nc3ncnc4[nH]ncc34)cc2)c1` [4b-3], the IC50 in assay [1] (setting [4]) is below 50 µM; in assay [2] (Homo sapiens, MKN-45, 72 hours) it was below 50 µM.
For the molecule `C[C@H](NC(=O)Nc1ccc(Nc2ncnc3[nH]ncc23)cc1)c1ccccc1` [4b-4], the IC50 in assay [1] (setting [3]) and in assay [2] (72 hours) was below 50 µM each time.
On to `O=C(Nc1ccc(NC(=O)N2C=NC=C3NNC=C32)cc1)Nc1ccc(Cl)c(C(F)(F)F)c1` [4b-5, 1-(4-(1H-pyrazolopyrimidine-4-amido)phenyl)-3-(4-chloro-3-(trifluoromethyl)phenyl)urea], for which, in assay [2] (Homo sapiens, MKN-45, 72 hours), the IC50 worked out at 7.64 µM.
In the case of `COc1ccc(NC(=O)Nc2ccc(NC(=O)N3C=NC=C4NNC=C43)cc2)cc1` [4b-6, 1-(4-(1H-pyrazolopyrimidine-4-amido)phenyl)-3-(4-methoxyphenyl)urea], the IC50 in assay [1] (setting [4]) is below 50 µM; in assay [2] (Homo sapiens, MKN-45, 72 hours) it was below 50 µM.
On to `Cc1cc(C)c(NC(=O)Nc2ccc(NC(=O)N3C=NC=C4NNC=C43)cc2)c(C)c1` [4b-7, 1-(4-(1H-pyrazolopyrimidine-4-amido)phenyl)-3-(2,4,6-trimethylphenyl)urea], for which the IC50 in assay [1] (setting [4]) was below 50 µM; in assay [2] (Homo sapiens, MKN-45, 72 hours) it was below 50 µM.
`O=C(Nc1ccc(Sc2ncnc3[nH]ncc23)cc1)Nc1cccc(C(F)(F)F)c1` [4c-2] came in with an IC50 in assay [2] (72 hours) of 8.71 µM.
With `CC(C)(C)c1cc(NC(=O)Nc2ccc(Sc3ncnc4[nH]ncc34)cc2)no1` [4c-3, 1-(4-(1H-pyrazolopyrimidine-4-sulfydryl)phenyl)-3-(5-tert-butylisoxazol-3-yl)urea], the IC50 in assay [1] (setting [3]) was below 50 µM; in assay [2] (72 hours), 3 to 10 µM.
As to `CC(C)n1ncc2c(Oc3ccc(NC(=O)Nc4cc(C(C)(C)C)on4)cc3)ncnc21` [5a-4, 1-(5-tert-butylisoxazol-3-yl)-3-(4-(1-isopropyl-(1H-pyrazolopyrimidine-4-yl)oxy)phenyl)urea], the IC50 in assay [1] (setting [4]) was below 50 µM; in assay [2] (Homo sapiens, MKN-45, 72 hours) it was below 50 µM.
